Test results: US11780893B2, “Kv1.3 blockers” (Zealand Pharma A/S, priority 2019, dated 2023)
Bridge positions count the residues as written; N and C are the ends. Peptide text beside a SMILES is read from it.

Assays:
[1] = biological target: T1, human Kv1.3 voltage-gated K+ channel (Homo sapiens, UniProt P22001); test: cell-based; details: inhibition of thallium flux, CHO-DUKX cells with human Kv1.3; read-out: IC50
T1 construct: host or cells: CHO-DUKX

[2] = biological target: T2, Kv1.1 (Homo sapiens, UniProt Q09470); test: cell-based; details: for IC50: CHO cells, whole-cell patch clamp, read-out: Potency IC50 (nM) Kv1.1; for Selectivity Kv1.1/Kv1.3: ratio IC50[Kv1.1]/IC50[Kv1.3]
T2 construct: expressed in transfected cells; host or cells: Chinese Hamster Ovary (CHO)

[3] = biological target: T3, Kv1.2 (Homo sapiens, UniProt P16389); test: cell-based; details: CHO cells, whole-cell patch clamp; read-out: Potency IC50 (nM) Kv1.2
T3 construct: expressed in transfected cells; host or cells: Chinese Hamster Ovary (CHO)

[4] = biological target: T4, Kv1.3 (Homo sapiens, UniProt P22001); test: cell-based; details: CHO cells, whole-cell patch clamp; read-out: Potency IC50 (nM) Kv1.3
T4 construct: expressed in transfected cells; host or cells: Chinese Hamster Ovary (CHO)

[5] = biological target: T5, Kv1.6 (Homo sapiens, UniProt P17658); test: cell-based; details: for IC50: CHO cells, whole-cell patch clamp, read-out: Potency IC50 (nM) Kv1.6; for Selectivity Kv1.6/Kv1.3: ratio IC50[Kv1.6]/IC50[Kv1.3]
T5 construct: expressed in transfected cells; host or cells: Chinese Hamster Ovary (CHO)

[6] = biological target: Rat whole blood (Rattus norvegicus, UniProt P15384)
Rat whole blood, sequence (P15384 whole entry): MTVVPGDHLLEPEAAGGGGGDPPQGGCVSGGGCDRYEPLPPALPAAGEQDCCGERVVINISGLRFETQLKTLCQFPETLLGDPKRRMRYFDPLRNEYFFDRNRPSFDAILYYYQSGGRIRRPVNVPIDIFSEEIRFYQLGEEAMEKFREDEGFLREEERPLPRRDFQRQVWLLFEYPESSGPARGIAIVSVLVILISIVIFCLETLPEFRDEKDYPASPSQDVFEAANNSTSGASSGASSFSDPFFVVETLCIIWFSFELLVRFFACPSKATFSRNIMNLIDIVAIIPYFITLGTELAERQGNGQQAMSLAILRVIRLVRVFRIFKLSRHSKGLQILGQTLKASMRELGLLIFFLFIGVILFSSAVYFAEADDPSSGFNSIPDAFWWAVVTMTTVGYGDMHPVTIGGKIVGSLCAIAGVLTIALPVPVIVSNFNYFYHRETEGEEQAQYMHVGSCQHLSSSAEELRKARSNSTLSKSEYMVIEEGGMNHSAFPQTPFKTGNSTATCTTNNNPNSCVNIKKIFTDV

T2 sequence (Q09470 whole entry): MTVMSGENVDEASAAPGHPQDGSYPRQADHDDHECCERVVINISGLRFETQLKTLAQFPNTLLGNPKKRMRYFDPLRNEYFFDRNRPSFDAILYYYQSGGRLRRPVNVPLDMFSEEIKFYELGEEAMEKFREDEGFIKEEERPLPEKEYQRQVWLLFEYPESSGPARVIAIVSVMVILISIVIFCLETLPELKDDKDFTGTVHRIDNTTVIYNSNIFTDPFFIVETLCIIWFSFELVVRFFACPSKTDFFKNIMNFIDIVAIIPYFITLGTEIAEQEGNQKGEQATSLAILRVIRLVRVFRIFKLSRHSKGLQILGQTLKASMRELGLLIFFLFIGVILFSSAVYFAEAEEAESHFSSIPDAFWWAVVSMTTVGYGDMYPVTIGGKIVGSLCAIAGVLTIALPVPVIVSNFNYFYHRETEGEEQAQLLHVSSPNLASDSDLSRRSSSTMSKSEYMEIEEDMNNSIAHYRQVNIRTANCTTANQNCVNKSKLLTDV
T3 sequence (P16389 whole entry): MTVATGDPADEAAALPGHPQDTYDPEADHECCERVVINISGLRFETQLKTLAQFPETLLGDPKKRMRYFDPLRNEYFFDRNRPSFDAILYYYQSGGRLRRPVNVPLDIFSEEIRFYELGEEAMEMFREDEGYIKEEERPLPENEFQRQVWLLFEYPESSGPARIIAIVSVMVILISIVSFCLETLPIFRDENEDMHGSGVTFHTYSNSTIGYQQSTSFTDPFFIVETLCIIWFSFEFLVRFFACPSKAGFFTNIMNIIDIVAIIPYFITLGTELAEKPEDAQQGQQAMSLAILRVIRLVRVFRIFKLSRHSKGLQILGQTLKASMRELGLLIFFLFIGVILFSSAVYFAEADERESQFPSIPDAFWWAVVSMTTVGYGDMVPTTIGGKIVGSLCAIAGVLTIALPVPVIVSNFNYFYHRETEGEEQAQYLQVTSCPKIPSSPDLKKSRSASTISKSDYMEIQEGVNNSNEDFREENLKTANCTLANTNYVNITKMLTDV
T1 sequence (P22001 whole entry): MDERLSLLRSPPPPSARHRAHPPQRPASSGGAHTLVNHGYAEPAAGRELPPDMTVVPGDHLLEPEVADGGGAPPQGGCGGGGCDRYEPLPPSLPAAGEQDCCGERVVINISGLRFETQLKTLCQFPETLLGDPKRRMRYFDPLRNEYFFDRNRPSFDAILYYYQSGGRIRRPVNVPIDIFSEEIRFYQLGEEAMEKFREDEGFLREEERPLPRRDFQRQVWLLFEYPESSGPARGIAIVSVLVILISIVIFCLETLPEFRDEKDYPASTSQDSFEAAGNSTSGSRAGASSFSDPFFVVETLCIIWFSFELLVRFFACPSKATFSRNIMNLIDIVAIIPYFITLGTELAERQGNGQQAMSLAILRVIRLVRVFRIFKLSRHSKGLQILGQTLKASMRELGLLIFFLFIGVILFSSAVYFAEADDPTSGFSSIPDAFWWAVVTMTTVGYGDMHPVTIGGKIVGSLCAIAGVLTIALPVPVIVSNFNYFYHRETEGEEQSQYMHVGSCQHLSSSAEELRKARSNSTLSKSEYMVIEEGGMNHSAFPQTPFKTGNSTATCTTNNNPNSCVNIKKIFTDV
T4 sequence (P22001 whole entry): as above
T5 sequence (P17658 whole entry): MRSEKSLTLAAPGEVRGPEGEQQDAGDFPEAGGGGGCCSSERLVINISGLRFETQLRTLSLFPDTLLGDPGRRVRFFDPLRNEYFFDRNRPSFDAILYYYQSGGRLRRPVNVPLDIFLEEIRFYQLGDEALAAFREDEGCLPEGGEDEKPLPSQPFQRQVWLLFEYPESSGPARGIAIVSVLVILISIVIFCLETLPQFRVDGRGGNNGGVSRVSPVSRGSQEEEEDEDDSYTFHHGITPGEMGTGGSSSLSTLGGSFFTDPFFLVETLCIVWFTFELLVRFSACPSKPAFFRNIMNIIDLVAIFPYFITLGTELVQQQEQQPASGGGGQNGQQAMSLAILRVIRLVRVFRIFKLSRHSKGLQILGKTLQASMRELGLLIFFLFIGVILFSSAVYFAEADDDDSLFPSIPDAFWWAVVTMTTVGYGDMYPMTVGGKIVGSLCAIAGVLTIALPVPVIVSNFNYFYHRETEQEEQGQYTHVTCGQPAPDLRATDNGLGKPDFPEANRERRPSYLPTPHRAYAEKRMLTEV

Structure (SMILES) | IC50 [1] [nM] | IC50 [2] [nM] | Selectivity Kv1.1/Kv1.3 [2] | IC50 [3] [nM] | IC50 [4] [nM] | IC50 [5] [nM] | IC50 [6] [nM] | Selectivity Kv1.6/Kv1.3 [5]
CC[C@H](C)[C@@H]1NC(=O)[C@H](C)NC(=O)[C@H](CCCCN)NC(=O)[C@H](CC(C)C)NC(=O)[C@@H]2CSSC[C@@H](C(=O)N[C@@H](Cc3ccc(O)cc3)C(=O)N3CCC[C@H]3C(=O)N[C@@H](CCCNC(=N)N)C(N)=O)NC(=O)[C@H](CCCCN)NC(=O)[C@@H]3CSSC[C@H](NC(=O)[C@H](CCC(=O)O)NC(=O)[C@H](C(C)C)NC(=O)[C@H](CO)NC(=O)[C@H](C)NC(=O)[C@H](CO)NC(=O)[C@@H](NC(=O)[C@H](CCCNC(=N)N)NC(=O)[C@H](CCSC)NC(=O)[C@H](CC(=O)O)NC(=O)[C@H](CCSC)NC(=O)[C@@H](N)CC(N)=O)CSSC[C@H](NC(=O)[C@H](CCCCN)NC(=O)CNC(=O)[C@H](Cc4ccccc4)NC(=O)[C@H]([C@@H](C)CC)NC(=O)[C@H](CO)NC(=O)[C@H](CCCNC(=N)N)NC1=O)C(=O)N[C@@H](CCSC)C(=O)N[C@@H](CC(N)=O)C(=O)N[C@@H](CCCCN)C(=O)N[C@@H](CCCCN)C(=O)N3)C(=O)N[C@@H](CCCCN)C(=O)N[C@@H](CCC(N)=O)C(=O)N[C@@H](CCCCN)C(=O)N2 [Compound 21] (H-NMDMRCSASVECKQKCLKAIRSIFGKCMNKKCKCYPR-NH2; disulfide 6-27, 12-32, 16-34) | 0.12 | > 3000 | >13700 | 57 | 0.22 | 626 | ≤ 1 | –
CC[C@H](C)[C@@H]1NC(=O)[C@H](C)NC(=O)[C@H](CCCCN)NC(=O)[C@H](CC(C)C)NC(=O)[C@@H]2CSSC[C@@H](C(=O)N[C@@H](Cc3ccc(O)cc3)C(=O)N3CCC[C@H]3C(=O)N[C@@H](CCCNC(=N)N)C(N)=O)NC(=O)[C@H](CCCCN)NC(=O)[C@@H]3CSSC[C@H](NC(=O)[C@H](CCC(=O)O)NC(=O)[C@H](C(C)C)NC(=O)[C@H](CO)NC(=O)[C@H]([C@@H](C)CC)NC(=O)[C@H](CO)NC(=O)[C@@H](NC(=O)[C@H](CCCNC(=N)N)NC(=O)[C@H](CCSC)NC(=O)[C@H](CC(=O)O)NC(=O)[C@H](CCSC)NC(=O)[C@@H](N)CC(N)=O)CSSC[C@H](NC(=O)[C@H](CCCCN)NC(=O)CNC(=O)[C@H](Cc4ccccc4)NC(=O)[C@H]([C@@H](C)CC)NC(=O)[C@H](CO)NC(=O)CNC1=O)C(=O)N[C@@H](CCSC)C(=O)N[C@@H](CC(N)=O)C(=O)N[C@@H](CCCCN)C(=O)N[C@@H](CCCCN)C(=O)N3)C(=O)N[C@@H](CCCCN)C(=O)N[C@@H](CCC(N)=O)C(=O)N[C@@H](CCCCN)C(=O)N2 [Compound 26] (H-NMDMRCSISVECKQKCLKAIGSIFGKCMNKKCKCYPR-NH2; disulfide 6-27, 12-32, 16-34) | 0.092 | > 3000 | >11800 | 43 | 0.26 | > 3000 | ≤ 1 | >11800
CC[C@H](C)[C@@H]1NC(=O)[C@H](C)NC(=O)[C@H](CCCCN)NC(=O)[C@H](CC(C)C)NC(=O)[C@@H]2CSSC[C@@H](C(=O)N[C@@H](Cc3ccc(O)cc3)C(=O)N3CCC[C@H]3C(=O)N[C@@H](CCCNC(=N)N)C(N)=O)NC(=O)[C@H](CCCCN)NC(=O)[C@@H]3CSSC[C@H](NC(=O)[C@H](CCC(=O)O)NC(=O)[C@H](CCCNC(=N)N)NC(=O)[C@H](CO)NC(=O)[C@H](C)NC(=O)[C@H](CO)NC(=O)[C@@H](NC(=O)[C@H](CCCNC(=N)N)NC(=O)[C@H](CCSC)NC(=O)[C@H](CC(=O)O)NC(=O)[C@H](CCSC)NC(=O)[C@@H](N)CC(N)=O)CSSC[C@H](NC(=O)[C@H](CCCCN)NC(=O)CNC(=O)[C@H](Cc4ccccc4)NC(=O)[C@H]([C@@H](C)CC)NC(=O)[C@H](CO)NC(=O)CNC1=O)C(=O)N[C@@H](CCSC)C(=O)N[C@@H](CC(N)=O)C(=O)N[C@@H](CCCCN)C(=O)N[C@@H](CCCCN)C(=O)N3)C(=O)N[C@@H](CCCCN)C(=O)N[C@@H](CCC(N)=O)C(=O)N[C@@H](CCCCN)C(=O)N2 [Compound 27] (H-NMDMRCSASRECKQKCLKAIGSIFGKCMNKKCKCYPR-NH2; disulfide 6-27, 12-32, 16-34) | 0.065 | > 3000 | >25900 | 11 | 0.12 | 206 | ≤ 1 | –
CC[C@H](C)[C@@H]1NC(=O)[C@H](C)NC(=O)[C@H](CCCCN)NC(=O)[C@H](CC(C)C)NC(=O)[C@@H]2CSSC[C@@H](C(=O)N[C@@H](Cc3ccc(O)cc3)C(=O)N3CCC[C@H]3C(=O)N[C@@H](CCCNC(=N)N)C(N)=O)NC(=O)[C@H](CCCCN)NC(=O)[C@@H]3CSSC[C@H](NC(=O)[C@H](CCC(N)=O)NC(=O)[C@H](C(C)C)NC(=O)[C@H](CO)NC(=O)[C@H](C)NC(=O)[C@H](CO)NC(=O)[C@@H](NC(=O)[C@H](CCCNC(=N)N)NC(=O)[C@H](CCSC)NC(=O)[C@H](CC(=O)O)NC(=O)[C@H](CCSC)NC(=O)[C@@H](N)CC(N)=O)CSSC[C@H](NC(=O)[C@H](CCCCN)NC(=O)CNC(=O)[C@H](Cc4ccccc4)NC(=O)[C@H]([C@@H](C)CC)NC(=O)[C@H](CO)NC(=O)CNC1=O)C(=O)N[C@@H](CCSC)C(=O)N[C@@H](CC(N)=O)C(=O)N[C@@H](CCCCN)C(=O)N[C@@H](CCCCN)C(=O)N3)C(=O)N[C@@H](CCCCN)C(=O)N[C@@H](CCC(N)=O)C(=O)N[C@@H](CCCCN)C(=O)N2 [Compound 28] (H-NMDMRCSASVQCKQKCLKAIGSIFGKCMNKKCKCYPR-NH2; disulfide 6-27, 12-32, 16-34) | 0.064 | > 3000 | >15200 | 16 | 0.2 | 252 | ≤ 1 | –
CC[C@H](C)[C@@H]1NC(=O)[C@H](C)NC(=O)[C@H](CCCCN)NC(=O)[C@H](CC(C)C)NC(=O)[C@@H]2CSSC[C@@H](C(=O)N[C@@H](Cc3ccc(O)cc3)C(=O)N3CCC[C@H]3C(=O)N[C@@H](CCCNC(=N)N)C(N)=O)NC(=O)[C@H](CCCCN)NC(=O)[C@@H]3CSSC[C@H](NC(=O)[C@H](CCC(=O)O)NC(=O)[C@H](C(C)C)NC(=O)[C@H](CO)NC(=O)[C@H](C)NC(=O)[C@H](CO)NC(=O)[C@@H](NC(=O)[C@H](CCCNC(=N)N)NC(=O)[C@H](CCSC)NC(=O)[C@H](CC(=O)O)NC(=O)[C@H](CCSC)NC(=O)[C@@H](N)CC(N)=O)CSSC[C@H](NC(=O)[C@H](CCCCN)NC(=O)CNC(=O)[C@H](Cc4ccccc4)NC(=O)[C@H]([C@@H](C)CC)NC(=O)[C@H](CO)NC(=O)CNC1=O)C(=O)N[C@@H](CCSC)C(=O)N[C@@H](CC(N)=O)C(=O)N[C@@H](CCCCN)C(=O)N[C@@H](CCCCN)C(=O)N3)C(=O)N[C@@H](CC(C)C)C(=O)N[C@@H](CCC(N)=O)C(=O)N[C@@H](CCCCN)C(=O)N2 [Compound 29] (H-NMDMRCSASVECLQKCLKAIGSIFGKCMNKKCKCYPR-NH2; disulfide 6-27, 12-32, 16-34) | 0.18 | > 3000 | >7400 | 874 | 0.4 | > 3000 | ≤ 1 | >7400
CC[C@H](C)[C@@H]1NC(=O)[C@H](C)NC(=O)[C@H](CCCCN)NC(=O)[C@H](CC(C)C)NC(=O)[C@@H]2CSSC[C@@H](C(=O)N[C@@H](Cc3ccc(O)cc3)C(=O)N3CCC[C@H]3C(=O)N[C@@H](CCCNC(=N)N)C(N)=O)NC(=O)[C@H](CCCCN)NC(=O)[C@@H]3CSSC[C@H](NC(=O)[C@H](CCC(=O)O)NC(=O)[C@H](C(C)C)NC(=O)[C@H](CO)NC(=O)[C@H](C)NC(=O)[C@H](CO)NC(=O)[C@@H](NC(=O)[C@H](CCCNC(=N)N)NC(=O)[C@H](CCSC)NC(=O)[C@H](CC(=O)O)NC(=O)[C@H](CCSC)NC(=O)[C@@H](N)CC(N)=O)CSSC[C@H](NC(=O)[C@H](CCCCN)NC(=O)CNC(=O)[C@H](Cc4ccccc4)NC(=O)[C@H]([C@@H](C)CC)NC(=O)[C@H](CO)NC(=O)CNC1=O)C(=O)N[C@@H](CCSC)C(=O)N[C@@H](CC(N)=O)C(=O)N[C@@H](CCCCN)C(=O)N[C@@H](CCCCN)C(=O)N3)C(=O)N[C@@H](CCCCN)C(=O)N[C@@H](CCC(=O)O)C(=O)N[C@@H](CCCCN)C(=O)N2 [Compound 31] (H-NMDMRCSASVECKEKCLKAIGSIFGKCMNKKCKCYPR-NH2; disulfide 6-27, 12-32, 16-34) | 0.075 | > 3000 | >10800 | 179 | 0.28 | > 3000 | ≤ 1 | >10800
CC[C@H](C)[C@@H]1NC(=O)[C@H](C)NC(=O)[C@H](CCCCN)NC(=O)[C@H](CC(C)C)NC(=O)[C@@H]2CSSC[C@@H](C(=O)N[C@@H](Cc3ccc(O)cc3)C(=O)N3CCC[C@H]3C(=O)N[C@@H](CCCNC(=N)N)C(N)=O)NC(=O)[C@H](Cc3c[nH]cn3)NC(=O)[C@@H]3CSSC[C@H](NC(=O)[C@H](CCC(=O)O)NC(=O)[C@H](C(C)C)NC(=O)[C@H](CO)NC(=O)[C@H](C)NC(=O)[C@H](CO)NC(=O)[C@@H](NC(=O)[C@H](CCCNC(=N)N)NC(=O)[C@H](CCSC)NC(=O)[C@H](CC(=O)O)NC(=O)[C@H](CCSC)NC(=O)[C@@H](N)CC(N)=O)CSSC[C@H](NC(=O)[C@H](CCCCN)NC(=O)CNC(=O)[C@H](Cc4ccccc4)NC(=O)[C@H]([C@@H](C)CC)NC(=O)[C@H](CO)NC(=O)CNC1=O)C(=O)N[C@@H](CCSC)C(=O)N[C@@H](CC(N)=O)C(=O)N[C@@H](CCCCN)C(=O)N[C@@H](CCCCN)C(=O)N3)C(=O)N[C@@H](CCCCN)C(=O)N[C@@H](CCC(N)=O)C(=O)N[C@@H](CCCCN)C(=O)N2 [Compound 37] (H-NMDMRCSASVECKQKCLKAIGSIFGKCMNKKCHCYPR-NH2; disulfide 6-27, 12-32, 16-34) | 0.14 | > 3000 | >16100 | 338 | 0.19 | > 3000 | ≤ 1 | >16100
